According to patent US10189839B2, “Tricyclic imidazole compounds as inhibitors of tryptophan hydroxylase” (ACTELION PHARMACEUTICALS LTD, priority 2013, dated 2019):

Molecular target: T1, full length human TPH1 (Homo sapiens, UniProt P17752)
T1 construct: To generate the enzyme, full length human TPH1 is cloned into the plasmid pET20b(+); made in house; host or cells: E. coli
T1 sequence (P17752 1-444): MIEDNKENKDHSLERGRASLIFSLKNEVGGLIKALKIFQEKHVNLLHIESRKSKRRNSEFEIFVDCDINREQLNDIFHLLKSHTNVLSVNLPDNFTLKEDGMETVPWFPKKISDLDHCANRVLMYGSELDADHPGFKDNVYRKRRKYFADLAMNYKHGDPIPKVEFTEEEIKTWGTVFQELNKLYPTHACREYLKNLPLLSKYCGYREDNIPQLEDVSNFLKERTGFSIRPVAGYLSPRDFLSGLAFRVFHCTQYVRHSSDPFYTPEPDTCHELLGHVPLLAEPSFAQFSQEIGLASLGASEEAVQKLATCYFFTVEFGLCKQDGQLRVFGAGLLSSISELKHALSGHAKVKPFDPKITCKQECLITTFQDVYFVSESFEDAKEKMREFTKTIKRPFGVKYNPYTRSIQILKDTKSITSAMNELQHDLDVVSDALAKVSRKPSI
Assay: Biochemical in vitro assay using fluorescence readout (TPH1 enzyme activity)
In short: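 E. coli-expressed full-length human TPH1 (40-80 nM), affinity- and size-exclusion-purified, incubated 60 min at 15° C. in 0.1M Tris-HCl pH 7.6 with 1 mM DTT, 0.2 mg/ml catalase, 100 μM 6-methyltetrahydropterine and 40 μM L-tryptophan. 5-Hydroxy-L-tryptophan read by fluorescence (ex 300/em 540 nm) after HClO4 quench; IC50 versus vehicle, mean where repeated.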

[1] = Table 1, mean where determined several times

Row | SMILES | IC50 [1] [nM] | IC50 (Table 2) [nM]
1 | CCc1nc(NS(C)(=O)=O)ccc1OCC(=O)N1CCc2nc3n(c2C1c1ccc(C)c(F)c1F)CCCC3 (centres unmarked) [Example 1.9.7, N-(5-(2-(1-(2,3-difluoro-4-methylphenyl)-3,4,6,7,8,9-hexahydroimidazo[1,2-a:5,4-c′]dipyridin-2(1H)-yl)-2-oxoethoxy)-6-ethylpyridin-2-yl)methanesulfonamide] | 8 | –
2 | CS(=O)(=O)Nc1ccc(OCC(=O)N2CCc3nc4n(c3C2c2ccc(Cl)cc2F)CCS4)c(Cl)n1 (centres unmarked) [Example 4.1.1, N-(6-chloro-5-(2-(5-(4-chloro-2-fluorophenyl)-2,3,7,8-tetrahydrothiazolo[2′,3′:2,3]imidazo[4,5-c]pyridin-6(5H)-yl)-2-oxoethoxy)pyridin-2-yl)methanesulfonamide] | 19 | –
3 | CN(C)C(=O)c1csc(C2c3c(nc4n3CCNC4)CCN2C(=O)COc2ccc(N3CCOCC3)nc2Cl)c1 (centres unmarked) [Example 5.3.1, 5-(2-(2-((2-Chloro-6-morpholinopyridin-3-yl)oxy)acetyl)-1,2,3,4,6,7,8,9-octahydropyrido[4′,3′:4,5]imidazo[1,2-a]pyrazin-1-yl)-N,N-dimethylthiophene-3-carboxamide] | – | 94
4 | CN(C)C(=O)c1ccc(OCC(=O)N2CCc3nc4n(c3C2c2sccc2F)CCOC4)c(Cl)n1 (centres unmarked) [Example 6.6.2, 6-chloro-5-(2-(6-(3-fluorothiophen-2-yl)-3,4,8,9-tetrahydro-1H-pyrido[4′,3′:4,5]imidazo[2,1-c][1,4]oxazin-7(6H)-yl)-2-oxoethoxy)-N,N-dimethylpicolinamide] | 29 | –
5 | CC(=O)N1CCn2c(nc3c2C(c2ncc(C4CC4)cc2F)N(C(=O)COc2cc(F)cnc2Cl)CC3)C1 (centres unmarked) [Example 5.4.7, 1-(7-acetyl-1-(5-cyclopropyl-3-fluoropyridin-2-yl)-3,4,6,7,8,9-hexahydropyrido[4′,3′:4,5]imidazo[1,2-a]pyrazin-2(1H)-yl)-2-((2-chloro-5-fluoropyridin-3-yl)oxy)ethanone] | 431 | –
6 | CC(=O)N1CCn2c(nc3c2C(c2cc(C(=O)N(C)C)cs2)N(C(=O)COc2ccc(N4CCOCC4)nc2Cl)CC3)C1 (centres unmarked) [Example 5.3.2, 5-(7-Acetyl-2-(2-((2-chloro-6-morpholinopyridin-3-yl)oxy)acetyl)-1,2,3,4,6,7,8,9-octahydropyrido[4′,3′:4,5]imidazo[1,2-a]pyrazin-1-yl)-N,N-dimethylthiophene-3-carboxamide] | – | 35
7 | O=C(COc1ccc(-c2ncco2)nc1Cl)N1CCc2nc3n(c2C1c1ccc(Cl)cc1F)CCCC3 (centres unmarked) [Example 1.1.5, 1-(1-(4-chloro-2-fluorophenyl)-3,4,6,7,8,9-hexahydro-imidazo[1,2-a:5,4-c′]dipyridin-2(1H)-yl)-2-((2-chloro-6-(oxazol-2-yl)pyridin-3-yl)oxy)ethanone] | 21 | –
8 | CS(=O)(=O)Nc1ccc(OCC(=O)N2CCc3nc4n(c3C2c2ncc(C3CC3)cc2F)CCCC4)c(Cl)n1 (centres unmarked) [Example 1.3.1, N-(6-chloro-5-(2-(1-(5-cyclopropyl-3-fluoropyridin-2-yl)-3,4,6,7,8,9-hexahydroimidazo[1,2-a:5,4-c′]dipyridin-2(1H)-yl)-2-oxoethoxy)pyridin-2-yl)methanesulfonamide] | 63 | –
9 | CN1CCN(c2ccc(OCC(=O)N3CCc4nc5n(c4C3c3ccc(Cl)cc3F)CCS5)c(Cl)n2)S1(=O)=O (centres unmarked) [Example 4.1.5, 1-(5-(4-chloro-2-fluorophenyl)-2,3,7,8-tetrahydrothiazolo[2′,3′:2,3]imidazo[4,5-c]pyridin-6(5H)-yl)-2-((2-chloro-6-(5-methyl-1,1-dioxido-1,2,5-thiadiazolidin-2-yl)pyridin-3-yl)oxy)ethanone] | 12 | –
10 | CN(C)c1ccc(OCC(=O)N2CCc3nc4n(c3C2c2ccc(Cl)cc2F)CCCC4)c(Cl)n1 (centres unmarked) [Example 1.1.21, 1-(1-(4-chloro-2-fluorophenyl)-3,4,6,7,8,9-hexahydroimidazo[1,2-a:5,4-c′]dipyridin-2(1H)-yl)-2-((2-chloro-6-(dimethylamino)pyridin-3-yl)oxy)ethan-1-one] | 13 | –
11 | Cc1ccc(C2c3c(nc4n3CCCC4)CCN2C(=O)COc2ccc(C(F)(F)F)cc2Cl)c(F)c1F (centres unmarked) [Example 1.9.5, 2-(2-chloro-4-(trifluoromethyl)phenoxy)-1-(1-(2,3-difluoro-4-methylphenyl)-3,4,6,7,8,9-hexahydroimidazo[1,2-a:5,4-c′]dipyridin-2(1H)-yl)ethanone] | 87 | –
12 | O=C(COc1ccc(N2CCCS2(=O)=O)nc1Cl)N1CCc2nc3n(c2[C@@H]1c1ccc(Cl)cc1F)CCS3 [Example 4.1.16, (S)-1-(5-(4-chloro-2-fluorophenyl)-2,3,7,8-tetrahydrothiazolo[2′,3′:2,3]imidazo[4,5-c]pyridin-6(5H)-yl)-2-((2-chloro-6-(1,1-dioxidoisothiazolidin-2-yl)pyridin-3-yl)oxy)ethanone] | 6 | –
13 | CCc1nc(C2CC2)ccc1OCC(=O)N1CCc2nc3n(c2C1c1ccc(Cl)cc1F)CCS3 (centres unmarked) [Example 4.1.14, 1-(5-(4-chloro-2-fluorophenyl)-2,3,7,8-tetrahydrothiazolo[2′,3′:2,3]imidazo[4,5-c]pyridin-6(5H)-yl)-2-((6-cyclopropyl-2-ethylpyridin-3-yl)oxy)ethanone] | 16 | –

The remaining lines, values ahead:

Row | IC50 [1] [nM] | IC50 (Table 2) [nM] | SMILES
14 | 7 | – | CCc1nc(N2CCCS2(=O)=O)ccc1OCC(=O)N1CCc2nc3n(c2[C@@H]1c1sc(C)nc1C)CCC3 [Example 2.4.4, (R)-1-(1-(2,4-dimethylthiazol-5-yl)-3,4,7,8-tetrahydro-1H-pyrrolo[2′,1′:2,3]imidazo[4,5-c]pyridin-2(6H)-yl)-2-((6-(1,1-dioxidoisothiazolidin-2-yl)-2-ethylpyridin-3-yl)oxy)ethanone]
15 | 25 | – | CCc1nc(NS(C)(=O)=O)ncc1OCC(=O)N1CCc2nc3n(c2C1c1ccc(C2CC2)cc1F)CCS3 (centres unmarked) [Example 4.3.4, N-(5-(2-(5-(4-cyclopropyl-2-fluorophenyl)-2,3,7,8-tetrahydrothiazolo[2′,3′:2,3]imidazo[4,5-c]pyridin-6(5H)-yl)-2-oxoethoxy)-4-ethylpyrimidin-2-yl)methanesulfonamide]
16 | 48 | – | CC(=O)N1CCn2c(nc3c2C(c2cc(Cl)ccn2)N(C(=O)COc2ccc(N4CCOCC4)nc2Cl)CC3)C1 (centres unmarked) [Example 5.16.1, 1-(7-acetyl-1-(4-chloropyridin-2-yl)-3,4,6,7,8,9-hexahydropyrido[4′,3′:4,5]imidazo[1,2-a]pyrazin-2(1H)-yl)-2-((2-chloro-6-morpholinopyridin-3-yl)oxy)ethanone]
17 | 58 | – | CS(=O)(=O)Nc1ccc(OCC(=O)N2CCc3nc4n(c3C2c2sccc2F)CCS4)c(Cl)n1 (centres unmarked) [Example 4.6.2, N-(6-chloro-5-(2-(5-(3-fluorothiophen-2-yl)-2,3,7,8-tetrahydrothiazolo[2′,3′:2,3]imidazo[4,5-c]pyridin-6(5H)-yl)-2-oxoethoxy)pyridin-2-yl)methanesulfonamide]
18 | 114 | – | Cc1cnc(C2c3c(nc4n3CCCC4)CCN2C(=O)COc2ccc(C(=O)N(C)C3CC3)nc2Cl)c(F)c1 (centres unmarked) [Example 1.6.3, 6-chloro-N-cyclopropyl-5-(2-(1-(3-fluoro-5-methyl-pyridin-2-yl)-3,4,6,7,8,9-hexahydroimidazo[1,2-a:5,4-c′]dipyridin-2(1H)-yl)-2-oxoethoxy)-N-methyl-picolinamide]
19 | 20 | – | O=C(COc1ccc(N2CCOCC2)nc1Cl)N1CCc2nc3n(c2C1c1ncc(C2CC2)cc1F)CCNC3 (centres unmarked) [Example 5.4.3, 2-((2-chloro-6-morpholinopyridin-3-yl)oxy)-1-(1-(5-cyclopropyl-3-fluoropyridin-2-yl)-3,4,6,7,8,9-hexahydropyrido[4′,3′:4,5]imidazo[1,2-a]pyrazin-2(1H)-yl)ethanone]
20 | 9 | – | CN(CC(F)(F)F)c1ccc(OCC(=O)N2CCc3nc4n(c3C2c2ccc(Cl)cc2F)CCCC4)c(Cl)n1 (centres unmarked) [Example 1.1.23, 1-(1-(4-chloro-2-fluorophenyl)-3,4,6,7,8,9-hexahydroimidazo[1,2-a:5,4-c′]dipyridin-2(1H)-yl)-2-((2-chloro-6-(methyl(2,2,2-trifluoroethyl)amino)pyridin-3-yl)oxy)ethan-1-one]
21 | 16 | – | CN(c1ccc(OCC(=O)N2CCc3nc4n(c3C2c2ccc(Cl)cc2F)CCS4)c(Cl)n1)S(C)(=O)=O (centres unmarked) [Example 4.1.4, N-(6-chloro-5-(2-(5-(4-chloro-2-fluorophenyl)-2,3,7,8-tetrahydrothiazolo[2′,3′:2,3]imidazo[4,5-c]pyridin-6(5H)-yl)-2-oxoethoxy)pyridin-2-yl)-N-methylmethanesulfonamide]
22 | 20 | – | CN(C(=O)c1ccc(OCC(=O)N2CCc3nc4n(c3C2c2ccc(C3CC3)cc2F)CCCC4)c(Cl)n1)C1CC1 (centres unmarked) [Example 1.8.1, 6-chloro-N-cyclopropyl-5-(2-(1-(4-cyclopropyl-2-fluorophenyl)-3,4,6,7,8,9-hexahydroimidazo[1,2-a:5,4-c′]dipyridin-2(1H)-yl)-2-oxoethoxy)-N-methylpicolinamide]
23 | 36 | – | CCc1nc(NS(C)(=O)=O)ccc1OCC(=O)N1CCc2nc3n(c2C1c1cnc(C)s1)CCCC3 (centres unmarked) [Example 1.15.1, N-(6-ethyl-5-(2-(1-(2-methylthiazol-5-yl)-3,4,6,7,8,9-hexahydroimidazo[1,2-a:5,4-c′]dipyridin-2(1H)-yl)-2-oxoethoxy)pyridin-2-yl)methanesulfonamide]
